Results reported in patent US20220002288A1, “MONOBACTAM COMPOUNDS AND USE THEREFOR” (priority 2018, published 2022).
In brackets after ≈: the same amount, converted by molar mass.

Columns and labels:
[1] = Pharmacokinetics of the compounds in mice; format: in vivo, BALB/c mice
Text: Animals: male BALB/c mice, SPF grade, purchased from Changzhou Cavens Experimental Animal Co., Ltd.; 16-24 g, license number: SCXK (Su)2016-0010; 2 to 3 days of adaptation period were given before the experiment.
Instruments: API 4500 High Performance Liquid Chromatograph Coupled Triple Quadrupole Mass Spectrometer, and Analyst QS A01.01 Chromatography Workstation were both purchased from AB SCIEX of the United States; Milli-Q ultrapure water device was purchased from Millipore; CF16R XII desktop high-speed refrigerated centrifuge was purchased From Hitachi Company; Qilinbeier Vortex-5 oscillator was purchased from IKA Company of German; electric heating constant-temperature water bath was purchased from Changzhou Guohua Electric Appliance Co., Ltd.; electric pipette was purchased from Thermo Company of American; and microanalysis balance was purchased from Shanghai Mettler Co., Ltd.
2 mg of the test compound was weighed, added to physiological saline, vortexed for 2 min, and ultrasonicated for 3 min, to prepare a test solution with a concentration of 0.2 mg/mL for intravenous administration.
A single dose of 2 mg/kg of the test compound was administered to BALB/c mice via the tail vein, the dose volume being 0.1 mL/10 g. At 5 min, 15 min, 30 min, 1 h, 2 h, 4 h after administration, blood samples were collected from the orbital venous plexus into heparinized EP tubes (0.6 mL), which were temporarily placed on crushed ice.
The samples were centrifuged at 8000 rpm for 5 min. 15 μL of upper plasma were transferred to a 96-well plate. 150 μL of methanol:acetonitrile (v/v=1:1) (containing 20 ng/mL tolbutamide) was added to 15 μL of plasma, shaken for 3 min, and centrifuged at 4500 rpm for 5 min. 100 μL of supernatant was taken to a 2 mL deep well plate. 100 μL of diluent (pure water) was added. The samples were shaken for 3 min, and centrifuged at 4500 rpm for 5 min. 180 μL of the supernatant was transferred to the sample plate. The content of the compound in the supernatant sample was analyzed by LC-MS/MS, and various pharmacokinetic parameters were calculated with WinNonlin software.

[2] = system: clinically isolated Acinetobacter baumannii; assay: MIC experiment of clinically sourced bacterial strains; format: cell-based; conditions: for MIC: Acinetobacter baumannii
Protocol: (§1) Compounds: the compound of Example 1 and Compound C of Comparative Example 3. Both test compounds were dissolved and diluted with DMSO, and the final concentrations were prepared as 64, 32, 16, 8, 4, 2, 1, 0.5, 0.25, 0.125, 0.0625 μg/mL in the experiment.
(§2) Bacterial strains: clinically isolated Acinetobacter baumannii, Pseudomonas aeruginosa, Klebsiella pneumoniae and Escherichia coli, all provided by HD Biosciences (Shanghai) Co., Ltd.
(§3) Medium: Trypticase soy agar (TSA) (BD BBL 211043), and Cation-adjusted Mueller Hinton broth (CAMHB) (BD BBL212322).
(§4) The experimental method was the same as that in the above Experimental Example 1.

[3] = system: clinically isolated Escherichia coli; assay: as above; format: cell-based
Protocol: as §1, §2, §3, §4

[4] = system: clinically isolated Klebsiella pneumoniae; assay: as above; format: cell-based; conditions: Klebsiella pneumoniae
Protocol: as §1, §2, §3, §4

[5] = system: clinically isolated Pseudomonas aeruginosa; assay: as above; format: cell-based
Protocol: as §1, §2, §3, §4

[6] = system: drug-resistant Acinetobacter baumannii; assay: MIC in combination with Relebactam; format: cell-based
Text: In addition, the inventors of the present invention also tested the inhibitory activities of the compound of Example 1 and Compound C, respectively, in combination with Relebactam on drug-resistant Acinetobacter baumannii (the experimental method was the same as that in Experimental Example 1).

[7] = system: Acinetobacter baumannii, Pseudomonas aeruginosa, and Escherichia coli; assay: In vitro antibacterial activity, summary statements over all strains of Experimental Example 1; format: cell-based; conditions: method of Experimental Example 1
Protocol: (§5) Compounds: The compounds prepared in the above examples and comparative examples. All test compounds were dissolved and diluted with DMSO, and the final concentrations were prepared as 64, 32, 16, 8, 4, 2, 1, 0.5, 0.25, 0.125, 0.0625 μg/mL in the experiment.
(§6) Bacterial strains: 6 strains of Acinetobacter baumannii (codenames: HDBAB-YK4, HDBAB-YK7, HDBAB-YK12, HDBAB-YK16, HDBAB_OXA_7, ATCC 19606), 2 strains of Pseudomonas aeruginosa (codenames: HDBPA-YK9, HDBPA)-YK15), 1 strain of Escherichia coli (codename: CLB30048), all provided by HD Biosciences (Shanghai) Co., Ltd.
The minimum inhibitory concentration (MIC) of each compound was recorded according to the guidelines of the Clinical and Laboratory Standards Institute.

Acinetobacter baumannii = assay: In vitro antibacterial activity, minimum inhibitory concentration (MIC); format: cell-based
Protocol: as §5, §6, §3
(§7) The bacteria used for the minimum inhibitory concentration (MIC) test were stored frozen at −80° C., and needed 2 days to recover before use. A small amount of frozen bacteria was scraped with a sterile inoculation loop for streak inoculation on a TSA solid medium petri dish. The dish was placed in an ordinary incubator at 35±2° C. for 20-24 hours. 5-10 Colonies with similar morphologies were picked from the above-mentioned petri dish with a sterile inoculating loop for streak inoculation again on a TSA solid medium petri dish. The dish was then placed in an ordinary incubator at 35±2° C. for 20-24 hours.
(§8) 1.02×CAMHB liquid medium was taken out from a 4° C. refrigerator and placed at room temperature for preheating. 5-10 Individual bacterial colonies were picked from the solid petri dish of the above Section 2.1 and re-suspended in 500 μL of 0.9% NaCl, and then the OD600 was adjusted to 0.1-0.15 with a spectrophotometer. Then the bacteria were diluted 400 times with 1.02×CAMHB (two-step dilution method: firstly diluting 10 times, then diluting 40 times).
(§9) The number of inoculated bacteria can be obtained by counting the colonies on the petri dish (see Section 2.4).
(§10) One compound was arranged in each row of a 96-well test plate: the highest test concentration for each compound was 64 μg/mL, which was diluted by a factor of two.
(§11) Growth control (GC): 1.02×CAMHB and dimethyl sulfoxide (DMSO) containing bacterial inoculum, no compound.
(§12) Sterile control (SC): Containing 1.02×CAMHB and DMSO, no compound.
(§13) All test compounds were dissolved and diluted with DMSO. 50 μL of 3.2 mg/mL of each test compound was transferred to the initial well (A1-H1) of the dilution plate, and then 25 μL of DMSO was transferred to other wells. The test compounds were sequentially diluted by a factor of 2 from column 1 to column 11 (i.e. drawing 25 μL of test compound from column 1 to column 2 and mixing well, and then drawing 25 μL of test compound from column 2 to column 3 and mixing well, and then drawing 25 μL of test compound from column 3 to column 4 and mixing well, and so on, until diluting to column 11).
(§14) 2 μL of the compound was transferred from the compound plate to the corresponding well of the test plate. Meanwhile, 2 μL of 100% DMSO was transferred to the compound-free wells (the GC and SC wells).
(§15) 98 μL of the corresponding bacterial inoculum was added to the test plate (except for the SC well).
(§16) 98 μL of 1.02×CAMHB medium was added to the SC well of the test plate.
(§17) After the system was added, the test plate was covered with a sterile lid, centrifuged at 800 rpm for 30 seconds, then shaken on a plate shaker at 400 rpm for 1 minute for mixing well, and then placed in an incubator at 35±2° C. for 20 hours.
(§18) The inoculated bacteria were gradient diluted by 10 folds with the liquid medium, from 10^−1 to 10^−3. 100 μL of the above bacterial dilution was spread evenly on a TSA petri dish, 2 replicates for each dilution. After the medium was absorbed by TSA for 10 minutes, the petri dishes were reversed and incubated in an incubator at 35±2° C. for 24 hours.
(§19) A compound management system was turned on to check whether the barcode and compound arrangement of each test plate were correct. […]

Escherichia coli = assay: as above; format: cell-based; conditions: strain CLB30048, read-out: MIC
Protocol: as §5, §6, §3, §7, §8, §9, §10, §11, §12, §13, §14, §15, §16, §17, §18, §19

Pseudomonas aeruginosa = assay: as above; format: cell-based
Protocol: as §5, §6, §3, §7, §8, §9, §10, §11, §12, §13, §14, §15, §16, §17, §18, §19

[8] = mouse, male BALB/c mice, single intravenous dose 2 mg/kg, plasma

In the case of `CC1(C)[C@H](NC(=O)/C(=N\O[C@@H](COc2ccc(-c3cn(CCCN)[n+](CC4CNC4)c3)cc2)C(=O)O)c2csc(N)n2)C(=O)N1OS(=O)(=O)[O-]` [Compound C, reference compound], the “bioavailability (F) (in words)” value ([1]; compared with some compounds of the present invention) is reported as “weaker”, the MIC ([2]; clinical strain A0242702) is reported as at most 0.063 µg/mL and the MIC ([2]; clinical strain A0244122) is reported as 2 µg/mL (≈ 2.72 µM). For the same compound, the MIC ([2]; clinical strain A0248164) was 2 µg/mL (≈ 2.72 µM), the MIC ([2]; clinical strain A0248384) was 2 µg/mL (≈ 2.72 µM) and the MIC ([2]; clinical strain A0252247) was 0.125 µg/mL (≈ 0.17 µM). It also gave an MIC ([2]; clinical strain A0254384) of 0.125 µg/mL (≈ 0.17 µM), an MIC ([2]; clinical strain A0255830) of 16 µg/mL (≈ 21.7 µM) and an MIC ([2]; clinical strain A0257674) of 0.125 µg/mL (≈ 0.17 µM). For the same compound, the MIC ([2]; clinical strain A0258522) was 0.125 µg/mL (≈ 0.17 µM), the MIC ([2]; clinical strain A0262855) was 0.125 µg/mL (≈ 0.17 µM) and the MIC ([2]; clinical strain A0270386) was 1 µg/mL (≈ 1.36 µM). For the same compound, the MIC ([2]; clinical strain A0272260) was 0.125 µg/mL (≈ 0.17 µM), the MIC ([2]; clinical strain A0273375) was 1 µg/mL (≈ 1.36 µM) and the MIC ([2]; clinical strain A0273826) was 16 µg/mL (≈ 21.7 µM). It also gave an MIC ([2]; clinical strain A0274925) of 0.25 µg/mL (≈ 0.34 µM), an MIC ([2]; clinical strain A0283307) of 0.125 µg/mL (≈ 0.17 µM) and an MIC ([2]; clinical strain A0284214) of 0.125 µg/mL (≈ 0.17 µM). The MIC ([2]; clinical strain A0284295) was 0.125 µg/mL (≈ 0.17 µM), the MIC ([2]; clinical strain A0284552) was 0.5 µg/mL (≈ 0.68 µM) and the MIC ([2]; clinical strain A0285002) was 2 µg/mL (≈ 2.72 µM). It also gave an MIC ([2]; clinical strain A0285050) of 0.25 µg/mL (≈ 0.34 µM), an MIC ([2]; clinical strain A0285231) of 2 µg/mL (≈ 2.72 µM) and an MIC ([2]; clinical strain A0285299) of 0.25 µg/mL (≈ 0.34 µM). For the same compound, the MIC ([2]; clinical strain A0285369) was at most 0.063 µg/mL, the MIC ([2]; clinical strain A0285909) was 16 µg/mL (≈ 21.7 µM) and the MIC ([2]; clinical strain A0286065) was 2 µg/mL (≈ 2.72 µM). For the same compound, the MIC90 ([2]; clinically isolated Acinetobacter baumannii) was 16 µg/mL (≈ 21.7 µM), the MIC ([3]; clinical strain HDB0140) was 2 µg/mL (≈ 2.72 µM) and the MIC ([3]; clinical strain HDB0918) was 0.25 µg/mL (≈ 0.34 µM). For the same compound, the MIC ([3]; clinical strain HDB1120) was 0.125 µg/mL (≈ 0.17 µM), the MIC ([3]; clinical strain HDB5510) was 0.25 µg/mL (≈ 0.34 µM) and the MIC ([3]; clinical strain HDB8244) was 0.25 µg/mL (≈ 0.34 µM). The MIC ([4]; clinical strain Kp309) was 0.25 µg/mL (≈ 0.34 µM), the MIC ([4]; clinical strain Kp310) was at most 0.063 µg/mL and the MIC ([4]; clinical strain Kp472) was 0.125 µg/mL (≈ 0.17 µM). The MIC ([4]; clinical strain Kp510) was 0.25 µg/mL (≈ 0.34 µM), the MIC ([5]; clinical strain P7) was 2 µg/mL (≈ 2.72 µM) and the MIC ([5]; clinical strain P43) was 0.25 µg/mL (≈ 0.34 µM). The MIC ([5]; clinical strain P155) was 2 µg/mL (≈ 2.72 µM), the MIC ([5]; clinical strain P157) was 2 µg/mL (≈ 2.72 µM) and the MIC ([5]; clinical strain P162) was 2 µg/mL (≈ 2.72 µM). For the same compound, the MIC ([6]; strain HDBAB-YK12, in combination with 4 μg/mL Relebactam) was 8 µg/mL, the MIC ([6]; strain HDBAB-YK16, in combination with 4 μg/mL Relebactam) was 16 µg/mL and the MIC ([6]; strain HDBAB_OXA_7, in combination with 4 μg/mL Relebactam) was 16 µg/mL. For the same compound, the “in vitro antibacterial activity (in words)” value [7] was “weaker”.

`CC(CN)Nc1ccc(-c2ccc(OC[C@H](O/N=C(\C(=O)N[C@@H]3C(=O)N(OS(=O)(=O)[O-])C3(C)C)c3csc(N)n3)C(=O)O)cc2)c[n+]1C` (stereo partly shown) [Compound A, reference compound] gave an MIC (Acinetobacter baumannii; strain HDBAB-YK4) of 16 µg/mL (≈ 22.6 µM), an MIC (Acinetobacter baumannii; strain HDBAB-YK7) of 8 µg/mL (≈ 11.3 µM) and an MIC (Acinetobacter baumannii; strain HDBAB-YK12) of 4 µg/mL (≈ 5.66 µM). For the same compound, the MIC (Acinetobacter baumannii; strain HDBAB-YK16) was 16 µg/mL (≈ 22.6 µM), the MIC (Acinetobacter baumannii; strain HDBAB_OXA_7) was 16 µg/mL (≈ 22.6 µM) and the MIC (Escherichia coli) was 8 µg/mL (≈ 11.3 µM). The MIC (Pseudomonas aeruginosa; strain HDBPA-YK9) was 16 µg/mL (≈ 22.6 µM), the MIC (Pseudomonas aeruginosa; strain HDBPA-YK15) was 64 µg/mL (≈ 90.6 µM) and the Vd ([1]; male, BALB/c, mouse, plasma, iv, 2 mg/kg, male BALB/c mice, single intravenous dose 2 mg/kg, plasma, read-out: VSS) was 0.4 L/kg. It also gave an AUC(0-inf) [1, 8] of 2800 ng·h/mL, an AUC(0-t) [1, 8] of 2140 ng·h/mL and a C0 [1, 8] of 5920 ng/mL. For the same compound, the clearance [1, 8] was 265 mL/min/kg, the half-life [1, 8] was 18 min and the “in vitro antibacterial activity (in words)” value [7] was “significantly weaker”.
